Assay results as given in US9408848B2, “Fluorescent CDK inhibitors for treatment of cancer” (Georgetown University, priority 2008, dated 2016).
“Also recorded” adds a separate entry of the source. Where two headings read alike, the source gives them in different places.

Assays:
[1] = test system: MCF-7; experiment: Cell viability assay (WST-1); type: cell-based, human; conditions: MCF-7, WST-1, 48 h
Method: (§1) (10%), 2 mM L-glutamine, and 50 μg/mL each of antibiotics, namely penicillin, streptomycin, and neomycin at 37° C. in a humidified incubator containing 5% CO2
(§2) Briefly human breast cancer cells were seeded into a 96-well plate at 3000 cells per well in DMEM containing 10% FBS. Following 24 hours attachment period, compounds were dissolved in DMSO and serially diluted in tissue culture media and added to the cells in triplicate, and incubated for 48 h at 37° C. Control cells were treated with equal amount of DMSO. After 48 h incubation, cell viability was measured by WST-1 assay according to the manufacturer's instructions (Roche). […] The formazan absorbance, which correlates to the number of living cells, was measured at 450 nm and 630 nm as reference filter using a microplate reader. (Ultramark, Microplate Imaging System, Bio-Rad). The IC50 was calculated from the graph of the log of the compound concentration versus the fraction of the surviving cells.

[2] = test system: MDA-MB-231; experiment: Cell viability assay (WST-1); type: cell-based, human; conditions: read-out: IC50 (concentration yielding 50% growth inhibition), MDA-MB-231, WST-1, 48 h
Method: as §1, §2

[3] = test system: CL 10.3; experiment: Effect on multidrug resistant cell lines, IC50 72 hours; type: cell-based; conditions: for IC50: 72 h, CL 10.3, Breast (MDR); for CL 10.3 IC50/MCF-7 IC50: ratio, 72 hours; for activity in multidrug resistance cell line: MCF7 versus CL 10.3
Source text: (§3) The effect of VMY-1-103 on multidrug resistant cell lines was studied and compared with paclitaxel. Table 4 represents the IC50 of the compounds in the individual cell lines along with the ratio of the difference.

[4] = test system: MCF-7; experiment: as above; type: cell-based; conditions: Homo sapiens, MCF7, 72 h; MCF-7, Breast
Source text: as §3

[5] = molecular target: T1, CDK1/cyclinB (Homo sapiens, UniProt P06493); experiment: Kinase assay ([γ-33P]-ATP, histone H1); type: biochemical; conditions: 0.1 µM
T1 construct: purchased Millipore, Dundee, UK (screening service)
T1 sequence (P06493 whole entry): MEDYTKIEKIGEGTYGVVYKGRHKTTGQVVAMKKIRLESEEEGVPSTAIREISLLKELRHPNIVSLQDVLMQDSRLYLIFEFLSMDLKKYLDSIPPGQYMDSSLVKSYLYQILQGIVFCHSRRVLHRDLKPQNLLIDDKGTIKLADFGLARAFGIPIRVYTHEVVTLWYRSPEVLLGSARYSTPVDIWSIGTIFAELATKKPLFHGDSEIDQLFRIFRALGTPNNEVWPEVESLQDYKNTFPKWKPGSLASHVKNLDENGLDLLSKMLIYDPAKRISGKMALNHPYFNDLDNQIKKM
T1 sequence (P14635 whole entry partner): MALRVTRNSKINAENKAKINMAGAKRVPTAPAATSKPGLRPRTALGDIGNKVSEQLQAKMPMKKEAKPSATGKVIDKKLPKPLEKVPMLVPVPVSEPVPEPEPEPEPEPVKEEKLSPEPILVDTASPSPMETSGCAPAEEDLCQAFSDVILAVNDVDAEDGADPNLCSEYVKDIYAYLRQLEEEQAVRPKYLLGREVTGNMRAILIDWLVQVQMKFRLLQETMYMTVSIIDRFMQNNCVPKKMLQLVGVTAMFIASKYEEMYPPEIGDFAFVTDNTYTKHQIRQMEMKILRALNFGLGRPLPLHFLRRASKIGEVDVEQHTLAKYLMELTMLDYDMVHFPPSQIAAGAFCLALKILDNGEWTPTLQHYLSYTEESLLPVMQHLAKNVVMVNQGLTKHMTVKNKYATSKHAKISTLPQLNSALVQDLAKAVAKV
Method: (§4) The final reaction was carried out in a 25 μL solution.
(§5) Briefly assays were performed with a Biomek 2000 Laboratory Automation Workstation in a 96-well format (Beckman instruments, Palo Alto, Calif., U.S.A) for 40 min at ambient temperature in 25 μL incubations using [γ-^33P]-ATP. In a final reaction volume of 25 μL corresponding CDK/cyclin (h) (5-10 mU) was incubated with 8 mM MOPS pH 7.0, 0.2 mM EDTA, 0.1 mg/mL histone H1, 10 mM MgAcetate and [γ-^33P-ATP](specific activity approx. 500 cpm/pmol, concentration as required). The reaction was initiated by the addition of the MgATP mix. After incubation for 40 min at room temperature, the reaction was stopped by the addition of 5 μL of a 3% phosphoric acid solution.

[6] = molecular target: T2, CDK3/cyclinE (Homo sapiens, UniProt Q00526); experiment: Kinase assay ([γ-33P]-ATP, histone H1); type: biochemical; conditions: compound 0.1 μM
T2 construct: purchased Millipore, Dundee, UK (screening service)
T2 sequence (Q00526 whole entry): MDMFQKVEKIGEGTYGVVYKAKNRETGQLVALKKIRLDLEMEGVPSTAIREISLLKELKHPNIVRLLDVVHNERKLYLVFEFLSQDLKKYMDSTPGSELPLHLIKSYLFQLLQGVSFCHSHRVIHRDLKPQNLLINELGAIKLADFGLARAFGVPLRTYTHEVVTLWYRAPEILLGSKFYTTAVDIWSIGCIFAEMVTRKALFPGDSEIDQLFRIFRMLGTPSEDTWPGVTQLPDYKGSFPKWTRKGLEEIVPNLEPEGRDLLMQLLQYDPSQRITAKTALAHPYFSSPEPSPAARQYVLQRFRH
T2 sequence (P24864 whole entry partner): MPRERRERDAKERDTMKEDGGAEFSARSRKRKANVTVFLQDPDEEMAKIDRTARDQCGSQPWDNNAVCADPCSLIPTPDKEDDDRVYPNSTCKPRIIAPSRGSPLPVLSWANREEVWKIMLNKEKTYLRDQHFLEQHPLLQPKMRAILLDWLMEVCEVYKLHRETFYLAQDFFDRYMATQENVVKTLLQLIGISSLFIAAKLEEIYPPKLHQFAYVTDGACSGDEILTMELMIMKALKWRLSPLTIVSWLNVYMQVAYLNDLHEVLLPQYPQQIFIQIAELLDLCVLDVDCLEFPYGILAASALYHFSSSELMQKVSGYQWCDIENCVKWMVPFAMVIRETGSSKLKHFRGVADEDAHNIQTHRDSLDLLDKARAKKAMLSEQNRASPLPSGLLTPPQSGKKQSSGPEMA
Method: as §4, §5

[7] = molecular target: T3, CDK7/cyclinH/MATI (Homo sapiens, UniProt P50613); experiment: Kinase assay ([γ-33P]-ATP, histone H1); type: biochemical; conditions: for inhibition at 0.1 µM: read-out: % inhibition of kinase activity, CDK7/cyclinH/MATI
T3 construct: purchased Millipore, Dundee, UK (screening service)
T3 sequence (P50613 whole entry): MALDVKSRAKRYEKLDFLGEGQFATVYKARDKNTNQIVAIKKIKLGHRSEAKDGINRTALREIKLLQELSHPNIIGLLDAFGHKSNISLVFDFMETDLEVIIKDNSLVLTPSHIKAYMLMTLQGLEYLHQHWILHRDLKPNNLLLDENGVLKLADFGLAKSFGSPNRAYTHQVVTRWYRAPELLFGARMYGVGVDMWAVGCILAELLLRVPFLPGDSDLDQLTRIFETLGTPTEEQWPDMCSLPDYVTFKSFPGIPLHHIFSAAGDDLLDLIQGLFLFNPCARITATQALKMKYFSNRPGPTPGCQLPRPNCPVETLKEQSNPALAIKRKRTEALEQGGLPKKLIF
T3 sequence (P51946 whole entry partner): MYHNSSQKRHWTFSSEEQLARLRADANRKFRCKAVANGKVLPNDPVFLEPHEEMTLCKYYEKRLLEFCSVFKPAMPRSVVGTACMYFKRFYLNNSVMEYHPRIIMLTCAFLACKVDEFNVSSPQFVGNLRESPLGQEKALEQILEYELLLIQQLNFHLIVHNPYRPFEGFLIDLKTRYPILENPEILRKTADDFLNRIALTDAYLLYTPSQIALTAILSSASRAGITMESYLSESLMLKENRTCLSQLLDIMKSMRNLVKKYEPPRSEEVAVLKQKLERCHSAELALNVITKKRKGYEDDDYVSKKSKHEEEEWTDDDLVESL
T3 sequence (P51948 whole entry partner): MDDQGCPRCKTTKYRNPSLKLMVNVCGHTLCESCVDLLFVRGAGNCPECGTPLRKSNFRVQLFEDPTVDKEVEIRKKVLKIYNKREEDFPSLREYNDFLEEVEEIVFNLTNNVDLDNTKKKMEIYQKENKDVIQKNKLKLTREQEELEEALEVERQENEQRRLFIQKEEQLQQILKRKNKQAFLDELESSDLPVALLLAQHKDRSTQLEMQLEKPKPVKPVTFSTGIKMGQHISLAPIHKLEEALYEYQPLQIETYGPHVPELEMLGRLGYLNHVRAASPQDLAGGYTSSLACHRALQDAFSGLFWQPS
Method: . The final reaction was carried out in a 25 μL solution. The respective kinases (at […] were incubated with 8 mM MOPS (pH 7.0), 0.2 mM EDTA, 0.1 mg/ml histone H1, 10 mM MgAcetate and [γ-33P-ATP] (specific activity approximately 500 cpm/pmol, concentration as required). The reaction was then initiated by the addition of the MgATP mix. The reaction was stopped after 40 min of incubation by adding 5 μL of a 3% phosphoric acid solution. 10 μL of the reaction was spotted onto a P30 filter mat and washed 3 times for 5 min in 75 mM phosphoric acid and one in methanol prior to drying and counted radioactivity by scintillation counting. […]. Table 1 summarizes the cytotoxic effects of VMY compounds and its controls on breast cancer cell line.
as §5, with “Kinase selectivity of compounds VMY-1-101 and VMY-1-103 were screened at Millipore, Dundee, UK. Briefly” for “Briefly”, “solution. From the reaction, 10 μL was spotted onto a P30 filtermat and washed three times for 5 minutes in 75 mM phosphoric acid and once in methanol prior to dying and scintillation counting.” for “solution.”

[8] = test system: MCF-7; experiment: Cell cycle analysis by flow cytometry (propidium iodide); type: cell-based, human; conditions: for % G1 / % S / % Sub-G1: MCF-7, 24 hrs, 5 μM
Method: (§6) 5 μM concentrations were used for all drugs tested. The cells were exposed to the vehicle (DMSO) or […] of the CDK inhibitors for 24 hrs. The cell cycle distribution was then assessed using standard procedures.

[9] = test system: MDA-MB-231; experiment: as above; type: cell-based, human; conditions: for % G1 / % S / % Sub-G1: MDA-MB-231, 24 hrs, 5 μM
Method: as §6

[10] = test system: phospho-Cdc2; experiment: Western blot of G2/M cell cycle proteins; type: cell-based, human; conditions: MDA-MB-231, 10 μM, 1-24 h
Method: The expression levels principal component proteins, such as, phospho-Cdc2, Cdc2 and cyclin B were specific assessed.
Western blotting was performed according to literature procedure. […] Lysates were cleared by centrifugation at 12000 rpm for 15 min at 4° C. and protein was estimated by detergent compatible BCA protein assay kit (Pierce). Equivalent amounts of total proteins were resolved by SDS-PAGE (10%) and transferred to PVDF membrane. Membranes were blocked by 5% non-fat powdered milk in TBST overnight. Membranes were incubated with indicated primary antibodies for 2 hours followed by HRP-conjugated secondary antibodies for 1 hr and developed using enhanced chemiluminescence kit (Perkin Elmer).

[11] = test system: MDA-MB-231 cells; experiment: Apoptotic signaling, Western blot of apoptosis related proteins; type: cell-based, human
Method: In order to understand whether VMY-1-101 and VMY-1-103 compounds were able to induce apoptotic cell death, the expression of anti- and pro-apoptotic proteins in MDA-MB-231 cells following treatment with 10 μM drugs for 48 hours was evaluated first. […] This is further confirmed with proapoptotic 116 kDa poly (ADP-ribose) polymerase protein (PARP) into its 89-kDa fragments. […].
Western blotting was performed according to literature procedure. In brief, cell pellets were collected at the indicated times after treatment with compounds, suspended in 100 μL of lysis buffer (50 mM Tris-HCl, 150 mM NaCl, 1 mM EGTA, 1 mM EDTA, 20 mM NaF, 100 mM Na3VO4, 0.5% NP-40, 1% Triton X-100, 1 mM PMSF, 5 μg/ml aprotinin, 5 μg/ml leupeptin), vortexed twice and incubated in an ice bath for 30 min. Lysates were cleared by centrifugation at 12000 rpm for 15 min at 4° C. and protein was estimated by detergent compatible BCA protein assay kit (Pierce). Equivalent amounts of total proteins were resolved by SDS-PAGE (10%) and transferred to PVDF membrane. Membranes were blocked by 5% non-fat powdered milk in TBST overnight. Membranes were incubated with indicated primary antibodies for 2 hours followed by HRP-conjugated secondary antibodies for 1 hr and developed using enhanced chemiluminescence kit (Perkin Elmer).

[12] = test system: MDA-MB-231 cells; experiment: Reversibility of antiproliferative effect (24 h/MC/48 h, cell cycle by flow cytometry); conditions: MDA-MB-231, 5 μM and 10 μM, 24 h then 48 h drug free medium
Method: The cell cycle distribution was then analyzed by flow cytometry.
The effect of CDK inhibitors on cell cycle progression was analyzed by flow cytometry. […] Cells were trypsinized, centrifuged (2000 rpm) and cell pellets were collected. […] The cell cycle distribution was evaluated on DNA plots using the Modfit software (Verity softwarehouse, Topsham, Me.).

## CN(C)c1cccc2c(S(=O)(=O)NCCN)cccc12 [Dansyl ethylenediamine, reference compound]
[1]; Homo sapiens, MCF7, read-out: IC50 (concentration yielding 50% growth inhibition)
  IC50: > 100 µM
[2]; Homo sapiens
  IC50: > 100 µM

## CC(=O)O[C@H]1C(=O)[C@@]2(C)[C@H]([C@H](OC(=O)c3ccccc3)[C@]3(O)C[C@H](OC(=O)[C@H](O)[C@@H](NC(=O)c4ccccc4)c4ccccc4)C(C)=C1C3(C)C)[C@]1(OC(C)=O)CO[C@@H]1C[C@@H]2O [Paclitaxel, reference compound]
[3]
  IC50: 47.5 µM
  CL 10.3 IC50/MCF-7 IC50: 2375
[4]
  IC50: 0.002 µM

## CC(C)[C@H](CO)Nc1nc(Nc2ccc(C(=O)O)c(Cl)c2)c2ncn(C(C)C)c2n1 [Purvalanol B, reference compound]
[5]
  % inhibition of kinase activity, CDK1/cyclinB: 78 ± 6%
[6]
  % inhibition of kinase activity, CDK3/cyclinE: 89 ± 0%
[7]; compound 0.1 μM
  % inhibition of kinase activity, CDK7/cyclinH/MATI: 66 ± 1%
[1]; read-out: IC50 (concentration yielding 50% growth inhibition)
  IC50: > 100 µM
[2]
  IC50: > 100 µM
[8]
  % G1: 64.37 ± 0.57%
  % S: 20.54 ± 0.57%
  % Sub-G1: 1.10 ± 0.03%
[9]
  % G1: 58.69 ± 0.54%
  % S: 29.86 ± 0.70%
  % Sub-G1: 1.19 ± 0.01%
[10]
  expression of phospho-Cdc2 (T161, Y15): no affect on the phospho-Cdc2 expression; also recorded: does not show any affect on expression of phosphor-Cdc2

## CC[C@H](CO)Nc1nc(NCc2ccccc2)c2ncn(C(C)C)c2n1 [Roscovitine, 2-(R)-(1-ethyl-2-hydroxyethylamino)-6-benzylamino-9-isopropylpurine, reference compound]
[7]
  inhibition at 0.1 µM: 26 ± 5%
[8]
  % G1: 63.83 ± 0.58%
  % S: 19.88 ± 0.74%
  % Sub-G1: 0.73 ± 0.02%
[9]
  % G1: 57.59 ± 0.44%
  % S: 26.29 ± 0.32%
  % Sub-G1: 1.22 ± 0.06%
[11]; MDA-MB-231, even at 40 μM
  change in apoptosis protein levels: no change in protein levels
[12]
  reversibility of G2/M arrest / antiproliferative effect: went back to the normal stage after post incubation

## CC(C)[C@H](CO)Nc1nc(Nc2ccc(C(=O)NCCNS(=O)(=O)c3cccc4c(N(C)C)cccc34)c(Cl)c2)c2ncn(C(C)C)c2n1 [VMY-1-103, 2-Chloro-N-[2-(5-dimethylamino-naphthalene-1-sulfonylamino)-ethyl]-4-[2-(1-hydroxymethyl-2-methyl-propylamino)-9-isopropyl-9H-purin-6-ylamino]-benzamide]
[7]; compound 0.1 μM
  inhibition at 0.1 µM: 69 ± 2%
[2]; Homo sapiens
  IC50: 4.06 ± 1.32 µM
[8]; MCF-7, 5, 10 μM, 24 hrs
  effect on cell cycle progression (G2/M phase): induced the cell cycle progression in G2/M phase
[8]
  % G1: 61.02 ± 0.28%
  % S: 16.26 ± 0.24%
  % Sub-G1: 2.09 ± 0.08%
[9]; MDA-MB-231, 5, 10 μM, 24 hrs
  effect on cell cycle progression (G2/M phase): induced the cell cycle progression in G2/M phase
[9]
  % G1: 51.87 ± 0.80%
  % S: 25.15 ± 0.53%
  % Sub-G1: 2.17 ± 0.18%
[3]
  IC50: 44.3 µM
  activity in multidrug resistance cell line: moderate activity in a multidrug resistance cell line
  CL 10.3 IC50/MCF-7 IC50: 9.8
[3]; listed as VMY-103
  activity in multidrug resistance cell line: comparable activity in both cell lines
[3]; inferred from MDR cell line (Table 4)
  substrate for p-glycoprotein: not a substrate for p-glycoprotein
[4]
  IC50: 4.5 µM
[10]
  expression of phospho-Cdc2 (T161, Y15): decrease the phosphorylation level of G2/M checkpoint proteins; also recorded: time-dependent decrease in expression of phospho-Cdc2
[11]; MDA-MB-231, 10 μM, 48 hours
  PARP cleavage: moderate cleavage of the 116-kDa full length PARP into an 89-kDa fragment
  protein level of full length caspase 3 and 7: decrease in protein level of full length caspase 3 and 7
